Measurements: US10894784B2, “Heteroarylbenzimidazole compounds” (BAYER PHARMA AKTIENGESELLSCHAFT, priority 2015, dated 2021)
Read-outs that look alike come from different tables or passages of the source.

Target: TBK1 (Homo sapiens (Human), UniProt Q9UHD2)
Experiment: TBK1 low ATP kinase assay (in vitro assay 1)
Type: biochemical
[1] = in vitro assay 1, read-out: TBK1 low ATP kinase assay IC50

TBK1, sequence (Q9UHD2 whole entry): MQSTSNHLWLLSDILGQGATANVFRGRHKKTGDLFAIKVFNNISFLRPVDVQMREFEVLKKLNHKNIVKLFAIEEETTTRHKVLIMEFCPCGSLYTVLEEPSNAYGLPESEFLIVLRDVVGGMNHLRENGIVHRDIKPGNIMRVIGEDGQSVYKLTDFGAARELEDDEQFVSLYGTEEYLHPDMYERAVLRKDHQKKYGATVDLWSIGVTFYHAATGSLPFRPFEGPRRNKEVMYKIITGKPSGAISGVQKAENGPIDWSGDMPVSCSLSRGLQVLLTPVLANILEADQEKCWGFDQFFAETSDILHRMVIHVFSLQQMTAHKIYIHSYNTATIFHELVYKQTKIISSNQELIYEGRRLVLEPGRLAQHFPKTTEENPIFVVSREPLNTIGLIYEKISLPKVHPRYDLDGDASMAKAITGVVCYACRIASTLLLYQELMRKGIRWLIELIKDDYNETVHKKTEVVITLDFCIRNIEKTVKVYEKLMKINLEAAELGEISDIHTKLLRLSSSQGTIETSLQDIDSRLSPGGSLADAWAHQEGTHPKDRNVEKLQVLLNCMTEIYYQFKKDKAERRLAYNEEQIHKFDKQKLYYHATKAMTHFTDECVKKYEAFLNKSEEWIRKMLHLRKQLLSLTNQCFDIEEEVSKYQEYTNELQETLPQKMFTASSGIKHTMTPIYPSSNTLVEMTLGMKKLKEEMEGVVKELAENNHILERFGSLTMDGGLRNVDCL

Structure (SMILES) | IC50 [1] | IC50 (TBK1 low ATP kinase assay IC50, in vitro assay 1)
COc1c(NC2CCC2)ncnc1-c1ccc2nc(Nc3cc(C(C)N4CCN(C(=O)C5CC5)CC4)ccn3)[nH]c2c1 (single isomer, unassigned) [Example 114.03, (4-{(1R or 1S)-1-[2-({6-[6-(cyclobutylamino)-5-methoxypyrimidin-4-yl]-1H-benzimidazol-2-yl}amino)pyridin-4-yl]ethyl}piperazin-1-yl)(cyclopropyl)methanone] | 8.07 nM | 
CC(=O)N1CCN(Cc2ccnc(Nc3nc4ccc(-c5nc(C)no5)cc4[nH]3)c2)CC1 [Example 101.06, 1-{4-[(2-{[6-(3-methyl-1,2,4-oxadiazol-5-yl)-1H-benzimidazol-2-yl]amino}pyridin-4-yl)methyl]piperazin-1-yl}ethanone] | 990 nM | 
Cc1cc(-c2ccc3nc(Nc4cc(CN5CCN(C(=O)OC(C)(C)C)CC5)ccn4)[nH]c3c2)ccn1 [Example 01.01, tert-butyl 4-[(2-{[6-(2-methylpyridin-4-yl)-1H-benzimidazol-2-yl]amino}pyridin-4-yl)methyl]piperazine-1-carboxylate] | 150 nM | 
COc1nnccc1-c1ccc2nc(Nc3cc(CN4CCN(C(=O)C5CC5)CC4)ccn3)[nH]c2c1 [Example 46.01, cyclopropyl{4-[(2-{[6-(3-methoxypyridazin-4-yl)-1H-benzimidazol-2-yl]amino}pyridin-4-yl)methyl]piperazin-1-yl}methanone] | 32.5 nM | 
CC(c1ccnc(Nc2nc3ccc(-c4ccncn4)cc3[nH]2)c1)N1CCN(C(=O)CC(F)(F)F)CC1 (single isomer, unassigned) [Example 23.05.02.B, 3,3,3-trifluoro-1-{4-[(1S or 1R)-1-(2-{[6-(pyrimidin-4-yl)-1H-benzimidazol-2-yl]amino}pyridin-4-yl)ethyl]piperazin-1-yl}propan-1-one] | 1.86 nM | 
CCn1cc(-c2ccc3nc(Nc4cc(CN5CCN(C(=O)CC(F)(F)F)CC5)ccn4)[nH]c3c2OCC(C)C)cn1 [Example 52.01, 1-{4-[(2-{[6-(1-ethyl-1H-pyrazol-4-yl)-7-(2-methylpropoxy)-1H-benzimidazol-2-yl]amino}pyridin-4-yl)methyl]piperazin-1-yl}-3,3,3-trifluoropropan-1-one] | 64.7 nM | 
COc1ncccc1-c1ccc2nc(Nc3cc(CN4CCN(C(=O)C5CC5)CC4)ccn3)[nH]c2c1 [Example 15.03, cyclopropyl{4-[(2-{[6-(2-methoxypyridin-3-yl)-1H-benzimidazol-2-yl]amino}pyridin-4-yl)methyl]piperazin-1-yl}methanone] | 3810 nM | 
Cc1noc(-c2ccc3nc(Nc4cc(CN5CCN(C(=O)C6CC6)CC5(C)C)ccn4)[nH]c3c2)n1 [Example 16.04.04, cyclopropyl{3,3-dimethyl-4-[(2-{[6-(3-methyl-1,2,4-oxadiazol-5-yl)-1H-benzimidazol-2-yl]amino}pyridin-4-yl)methyl]piperazin-1-yl}methanone] | 497 nM | 
Cc1noc(-c2ccc3nc(Nc4cc(CN5CCN(C(=O)c6ccco6)CC5)ccn4)[nH]c3c2)n1 [Example 101.14, furan-2-yl{4-[(2-{[6-(3-methyl-1,2,4-oxadiazol-5-yl)-1H-benzimidazol-2-yl]amino}pyridin-4-yl)methyl]piperazin-1-yl}methanone] | 430 nM | 
COc1c(-c2ccc3nc(Nc4cc(CN5CCN(C(=O)C6CC6)CC5)ccn4)[nH]c3c2)ncnc1N(C)C [Example 107.01.02, cyclopropyl(4-{[2-({6-[6-(dimethylamino)-5-methoxypyrimidin-4-yl]-1H-benzimidazol-2-yl}amino)pyridin-4-yl]methyl}piperazin-1-yl)methanone] | 16 nM | 
Cn1ncnc1-c1ccc2nc(Nc3cc(CN4CCN(C(=O)CC(F)(F)F)CC4)ccn3)[nH]c2c1 [Example 41.02, 3,3,3-trifluoro-1-{4-[(2-{[6-(1-methyl-1H-1,2,4-triazol-5-yl)-1H-benzimidazol-2-yl]amino}pyridin-4-yl)methyl]piperazin-1-yl}propan-1-one] | 681 nM | 
COc1cc(-c2ccc3nc(Nc4cc(CN5CCN(C(=O)CC6CC6)CC5)ccn4)[nH]c3c2)ccn1 [Example 02.05, 2-cyclopropyl-1-{4-[(2-{[6-(2-methoxypyridin-4-yl)-1H-benzimidazol-2-yl]amino}pyridin-4-yl)methyl]piperazin-1-yl}ethanone] | 49.8 nM | 
O=C(C1CC1)N1CCN(Cc2ccnc(Nc3nc4ccc(-c5ncc[nH]5)cc4[nH]3)c2)CC1 [Example 43.01, cyclopropyl{4-[(2-{[6-(1H-imidazol-2-yl)-1H-benzimidazol-2-yl]amino}pyridin-4-yl)methyl]piperazin-1-yl}methanone] | 262 nM | 
CN(C)c1cc(-c2ccc3nc(Nc4cc(CN5CCN(C(=O)C6CC6)CC5)ccn4)[nH]c3c2)ccn1 [Example 135.03, cyclopropyl(4-{[2-({6-[2-(dimethylamino)pyridin-4-yl]-1H-benzimidazol-2-yl}amino)pyridin-4-yl]methyl}piperazin-1-yl)methanone] | 30 nM | 
CC(C)N(C)c1cc(-c2ccc3nc(Nc4cc(CN5CCN(C(=O)C6CC6)CC5)ccn4)[nH]c3c2)ncn1 [Example 153.03, cyclopropyl[4-({2-[(6-{6-[methyl(propan-2-yl)amino]pyrimidin-4-yl}-1H-benzimidazol-2-yl)amino]pyridin-4-yl}methyl)piperazin-1-yl]methanone] | 5 nM | 
Cc1cc(-c2ccc3nc(Nc4cc(C(C)N5CCN(C(=O)C6CC6)CC5)ccn4)[nH]c3c2)ncn1 (single isomer, unassigned) [Example 30.03.03.B, cyclopropyl{4-[(1S or 1R)-1-(2-{[6-(6-methylpyrimidin-4-yl)-1H-benzimidazol-2-yl]amino}pyridin-4-yl)ethyl]piperazin-1-yl}methanone] | 14 nM | 
O=C(C1CC1)N1CCN(Cc2ccnc(Nc3nc4ccc(-c5cc(C6CC6)ncn5)cc4[nH]3)c2)CC1 [Example 76.02, cyclopropyl{4-[(2-{[6-(6-cyclopropylpyrimidin-4-yl)-1H-benzimidazol-2-yl]amino}pyridin-4-yl)methyl]piperazin-1-yl}methanone] | 9.4 nM | 
COc1cnc(C)cc1-c1ccc2nc(Nc3cc(CN4CCN(C(=O)C5CC5)CC4)ccn3)[nH]c2c1 [Example 07.01, cyclopropyl{4-[(2-{[6-(5-methoxy-2-methylpyridin-4-yl)-1H-benzimidazol-2-yl]amino}pyridin-4-yl)methyl]piperazin-1-yl}methanone] | 224 nM | 
Cc1ncc(C)c(-c2ccc3nc(Nc4cc(CN5CCN(C(=O)C6CC6)CC5)ccn4)[nH]c3c2)n1 [Example 33.03, cyclopropyl{4-[(2-{[6-(2,5-dimethylpyrimidin-4-yl)-1H-benzimidazol-2-yl]amino}pyridin-4-yl)methyl]piperazin-1-yl}methanone] | 1500 nM | 
CC(c1ccnc(Nc2nc3ccc(-c4cc(N(C)C)ncn4)cc3[nH]2)c1)N1CCN(C(=O)CC(F)(F)F)CC1 (single isomer, unassigned) [Example 100.01, 1-(4-{(1R or 1S)-1-[2-({6-[6-(dimethylamino)pyrimidin-4-yl]-1H-benzimidazol-2-yl}amino)pyridin-4-yl]ethyl}piperazin-1-yl)-3,3,3-trifluoropropan-1-one] |  | 1.5 nM
CCOc1c(-c2ccncc2OC)ccc2nc(Nc3cc(CN4CCN(C(=O)C5CC5)CC4)ccn3)[nH]c12 [Example 51.03, cyclopropyl{4-[(2-{[7-ethoxy-6-(3-methoxypyridin-4-yl)-1H-benzimidazol-2-yl]amino}pyridin-4-yl)methyl]piperazin-1-yl}methanone] | 113 nM | 
COCCCS(=O)(=O)N1CCN(Cc2ccnc(Nc3nc4ccc(-c5ncncc5OC)cc4[nH]3)c2)CC1 [Example 35.01.10, N-[4-({4-[(3-methoxypropyl)sulfonyl]piperazin-1-yl}methyl)pyridin-2-yl]-6-(5-methoxypyrimidin-4-yl)-1H-benzimidazol-2-amine] | 35 nM | 
COc1nccc(-c2ccc3nc(Nc4cc(CN5CCN(C(=O)C6CC6)CC5)ccn4)[nH]c3c2)n1 [Example 25.01.05, cyclopropyl{4-[(2-{[6-(2-methoxypyrimidin-4-yl)-1H-benzimidazol-2-yl]amino}pyridin-4-yl)methyl]piperazin-1-yl}methanone] | 64.5 nM | 
COc1cnccc1-c1ccc2nc(Nc3cc(CN4CCN(C(=O)C(C)(C)C)CC4)ccn3)[nH]c2c1 [Example 04.06, 1-{4-[(2-{[6-(3-methoxypyridin-4-yl)-1H-benzimidazol-2-yl]amino}pyridin-4-yl)methyl]piperazin-1-yl}-2,2-dimethylpropan-1-one] | 30.2 nM | 
COc1nccc(-c2ccc3nc(Nc4cc(CN5CCN(C(=O)C6CC6)CC5)cc(C(F)(F)F)n4)[nH]c3c2)n1 [Example 25.02.01, cyclopropyl(4-{[2-{[6-(2-methoxypyrimidin-4-yl)-1H-benzimidazol-2-yl]amino}-6-(trifluoromethyl)pyridin-4-yl]methyl}piperazin-1-yl)methanone] | 346 nM | 
O=C(CC(F)(F)F)N1CCN(Cc2ccnc(Nc3nc4ccc(-c5cc(NC6CC6)ncn5)cc4[nH]3)c2)CC1 [Example 151.02, 1-(4-{[2-({6-[6-(cyclopropylamino)pyrimidin-4-yl]-1H-benzimidazol-2-yl}amino)pyridin-4-yl]methyl}piperazin-1-yl)-3,3,3-trifluoropropan-1-one] | 2.1 nM | 
COc1cc(-c2ccc3nc(Nc4cc(CN5CCN(C(=O)C6CC6)CC5)ccn4)[nH]c3c2)ncn1 [Example 163.03, cyclopropyl{4-[(2-{[6-(6-methoxypyrimidin-4-yl)-1H-benzimidazol-2-yl]amino}pyridin-4-yl)methyl]piperazin-1-yl}methanone] | 18 nM | 
Cc1nccc(-c2ccc3nc(Nc4cc(CN5CCN(C(=O)CC(F)(F)F)CC5)ccn4)[nH]c3c2)c1Cl [Example 130.02, 1-{4-[(2-{[6-(3-chloro-2-methylpyridin-4-yl)-1H-benzimidazol-2-yl]amino}pyridin-4-yl)methyl]piperazin-1-yl}-3,3,3-trifluoropropan-1-one] | 190 nM | 
CCN(CC)C(=O)N1CCN(Cc2ccnc(Nc3nc4ccc(-c5ncncc5OC)cc4[nH]3)c2)CC1 [Example 35.01.04, N,N-diethyl-4-[(2-{[6-(5-methoxypyrimidin-4-yl)-1H-benzimidazol-2-yl]amino}pyridin-4-yl)methyl]piperazine-1-carboxamide] | 26.9 nM | 
